In ChEMBL document CHEMBL1136439, “Synthesis and bioactivities of nitronyl nitroxide and RGD containing pseudopeptides” (2003):
Where a SMILES comes first, the peptide text is derived from it. The star is where a group is joined. X1 = CC1(C)N(O)C(c2ccc(OCC(=O)*)cc2)=[N+]([O-])C1(C)C

Tests used:
Oryctolagus cuniculus [1] = species on record: Oryctolagus cuniculus; test: Maximum rate of PAF induced platelet aggregation was determined in rabbit blood at a dose of 10-6 mol/L (in vitro); type: functional
Oryctolagus cuniculus [2] = species on record: Oryctolagus cuniculus; test: Maximum rate of PAF induced platelet aggregation was determined in rabbit blood at a dose of 10-7 mol/L (in vitro); type: functional
Oryctolagus cuniculus [3] = species on record: Oryctolagus cuniculus; test: Maximum rate of ADP induced platelet aggregation was determined in rabbit blood at a dose of 10-5 mol/L (in vitro); type: functional
Oryctolagus cuniculus [4] = species on record: Oryctolagus cuniculus; test: Maximum rate of ADP induced platelet aggregation was determined in rabbit blood at a dose of 10-7 mol/L (in vitro); type: functional
Oryctolagus cuniculus [5] = species on record: Oryctolagus cuniculus; test: Maximum rate of PAF induced platelet aggregation was determined in rabbit blood at a dose of 10-5 mol/L (in vitro); type: functional
Rattus norvegicus [6] = test: Effect on the wet thrombus weight in male wistar rat was determined(in vivo); type: functional; design: unit not given beside the values
Rattus norvegicus [7] = test: Effect on the dry thrombus weight in male wistar rat was determined(in vivo); type: functional
Oryctolagus cuniculus [8] = species on record: Oryctolagus cuniculus; test: Maximum rate of ADP induced platelet aggregation was determined in rabbit blood at a dose of 10-6 mol/L (in vitro); type: functional
Rattus norvegicus [9] = species on record: Rattus norvegicus; test: Compound tested for inhibition of Ach-induced vasorelaxation was determined in rat aortic strips; type: functional, Aorta; design: concentration or dose not given beside the values

`CC(=O)Oc1ccccc1C(=O)O` [ASPIRIN] gave an Am (Oryctolagus cuniculus [1]) of 36.98%, an Am (Oryctolagus cuniculus [2]) of 53.42% and an Am (Oryctolagus cuniculus [3]) of 30.01%. For the same molecule, the Am (Oryctolagus cuniculus [4]) was 54.89%, the Am (Oryctolagus cuniculus [5]) was 29.99% and the Activity (Rattus norvegicus [6]) was 28.11. For the same molecule, the Activity (Rattus norvegicus [7]) was 3.99 and the Am (Oryctolagus cuniculus [8]) was 42.58%.
`N=C(N)NCCC[C@H](N)C(=O)NCC(=O)N[C@@H](CC(=O)O)C(=O)N[C@@H](CO)C(=O)O` gave an Am (Oryctolagus cuniculus [1]) of 37.1%, an Am (Oryctolagus cuniculus [2]) of 54.21% and an Am (Oryctolagus cuniculus [3]) of 17.02%. For the same molecule, the Am (Oryctolagus cuniculus [4]) was 53.55%, the Am (Oryctolagus cuniculus [5]) was 22.66% and the Activity (Rattus norvegicus [6]) was 36.96. For the same molecule, the Activity (Rattus norvegicus [7]) was 6.68, the Inhibition (Rattus norvegicus [9]) was 3.2% and the Am (Oryctolagus cuniculus [8]) was 40.14%.
`CC(C)[C@H](NC(=O)[C@H](CC(=O)O)NC(=O)CNC(=O)[C@@H](N)CCCNC(=N)N)C(=O)O` (H-RGDV-OH) gave an Am (Oryctolagus cuniculus [1]) of 35.11%, an Am (Oryctolagus cuniculus [2]) of 52.66% and an Am (Oryctolagus cuniculus [3]) of 12.07%. The Am (Oryctolagus cuniculus [4]) was 50.06%, the Am (Oryctolagus cuniculus [5]) was 20.5% and the Activity (Rattus norvegicus [6]) was 32.62. It also gave an Activity (Rattus norvegicus [7]) of 5.13, an Inhibition (Rattus norvegicus [9]) of 2.4% and an Am (Oryctolagus cuniculus [8]) of 28.9%.
`CC1(C)N(O)C(c2ccc(OCC(=O)O)cc2)=[N+]([O-])C1(C)C` was tested, and the Am (Oryctolagus cuniculus [1]) was 52.98%, the Am (Oryctolagus cuniculus [2]) was 54.25% and the Am (Oryctolagus cuniculus [3]) was 51.6%. It also gave an Am (Oryctolagus cuniculus [4]) of 54.68%, an Am (Oryctolagus cuniculus [5]) of 52.92% and an Activity (Rattus norvegicus [6]) of 38.1. The Activity (Rattus norvegicus [7]) was 6.17, the Inhibition (Rattus norvegicus [9]) was 99.2% and the Am (Oryctolagus cuniculus [8]) was 51.96%.
For `N=C(N)NCCC[C@H](N)C(=O)NCC(=O)N[C@@H](CC(=O)O)C(=O)N[C@@H](Cc1ccccc1)C(=O)O` (H-RGDF-OH), the Am (Oryctolagus cuniculus [1]) was 25.18%, the Am (Oryctolagus cuniculus [2]) was 51.88% and the Am (Oryctolagus cuniculus [3]) was 10.13%. For the same molecule, the Am (Oryctolagus cuniculus [4]) was 33.76%, the Am (Oryctolagus cuniculus [5]) was 10.22% and the Activity (Rattus norvegicus [6]) was 25.61. For the same molecule, the Activity (Rattus norvegicus [7]) was 3.94, the Inhibition (Rattus norvegicus [9]) was 2.6% and the Am (Oryctolagus cuniculus [8]) was 24.15%.
For `CC1(C)N(O)C(c2ccc(OCC(=O)N[C@@H](CCCN=C(N)N)C(=O)NCC(=O)N[C@@H](CC(=O)O)C(=O)N[C@@H](Cc3ccccc3)C(=O)O)cc2)=[N+]([O-])C1(C)C` (X1-RGDF-OH), the Am (Oryctolagus cuniculus [1]) was 24.26%, the Am (Oryctolagus cuniculus [2]) was 50.02% and the Am (Oryctolagus cuniculus [3]) was 10.21%. The Am (Oryctolagus cuniculus [4]) was 35.25%, the Am (Oryctolagus cuniculus [5]) was 9.98% and the Activity (Rattus norvegicus [6]) was 24.3. The Activity (Rattus norvegicus [7]) was 3.16, the Inhibition (Rattus norvegicus [9]) was 88.9% and the Am (Oryctolagus cuniculus [8]) was 20.66%.
In the case of `CC1(C)N(O)C(c2ccc(OCC(=O)N[C@@H](CCCN=C(N)N)C(=O)NCC(=O)N[C@@H](CC(=O)O)C(=O)N[C@@H](CO)C(=O)O)cc2)=[N+]([O-])C1(C)C` (X1-RGDS-OH), the Am (Oryctolagus cuniculus [1]) is reported as 35.11%, the Am (Oryctolagus cuniculus [2]) is reported as 52.1% and the Am (Oryctolagus cuniculus [3]) is reported as 16.91%. It also gave an Am (Oryctolagus cuniculus [4]) of 51.46%, an Am (Oryctolagus cuniculus [5]) of 22.05% and an Activity (Rattus norvegicus [6]) of 32.09. The Activity (Rattus norvegicus [7]) was 5.08, the Inhibition (Rattus norvegicus [9]) was 88.9% and the Am (Oryctolagus cuniculus [8]) was 40.05%.
`CC(C)[C@H](NC(=O)[C@H](CC(=O)O)NC(=O)CNC(=O)[C@H](CCCN=C(N)N)NC(=O)COc1ccc(C2=[N+]([O-])C(C)(C)C(C)(C)N2O)cc1)C(=O)O` (X1-RGDV-OH) was tested, and the Am (Oryctolagus cuniculus [1]) was 33.22%, the Am (Oryctolagus cuniculus [2]) was 50.88% and the Am (Oryctolagus cuniculus [3]) was 11.85%. The Am (Oryctolagus cuniculus [4]) was 49.98%, the Am (Oryctolagus cuniculus [5]) was 20.45% and the Activity (Rattus norvegicus [6]) was 29.49. For the same molecule, the Activity (Rattus norvegicus [7]) was 4.07, the Inhibition (Rattus norvegicus [9]) was 91.2% and the Am (Oryctolagus cuniculus [8]) was 24.99%.
